Results as given in patent publication US20240115549A1, “TREATMENT OF MENTAL DISORDERS” (GH Research Ireland Limited, priority 2022, published 2024).
Entries after “also recorded” stand apart in the source; their conditions may differ.

Experiments:
[1] = LC-MS/MS of 5-MeO-DMT, bufotenine and 5-MIAA in breastmilk, serum and urine of a treated PPD patient; infant dose estimates
human hepatocytes [2] = test: Metabolism of 5-MeO-DMT in human hepatocytes in suspension; assay type: in vitro ADME; conditions: 5-MeO-DMT free base 10 μM incubated up to 120 minutes
Protocol: All samples were stored at −80° C. (nominal) prior to analysis.
Appropriate blank and control samples were also analysed. […] (nominal).

human hepatocytes [3] = test: Metabolic stability in Hprel human hepatocyte co-culture; assay type: in vitro ADME; conditions: for Half-life / In vitro intrinsic clearance: human hepatocytes, 1 μM; for Predicted hepatic extraction ratio: human, Hprel HumanPool human hepatocyte co-culture; for Disappearance with stromal cell controls: stromal cells
Protocol: The incubations were performed using 1 and 10 μM initial concentrations and sampling at 0, 1, 2, 4, 8, 24, 48, and 72 hours (h) time points. The samples were analysed using UPLC/QE-orbitrap-MS.
The remaining LC/MS peak areas detected for test compounds after each incubation time point with Hprel co-culture assay, relative to corresponding 0 min incubation samples, are shown in the tables below.

human plasma protein = test: Plasma binding of 5-MIAA; assay type: in vitro ADME
Protocol: Binding to human plasma protein was determined. Reported are the unbound fraction (fu) for three replicates as well as the mean unbound fraction, the standard deviation and the mean % recovery (Table 8).

[4] = 1.0 hrs after last dose, second PPD patient, inhaled 5-MeO-DMT, LC-MS/MS
[5] = 2.5 hrs after last dose, second PPD patient, inhaled 5-MeO-DMT, LC-MS/MS
[6] = 8.5 hrs after last dose, second PPD patient, inhaled 5-MeO-DMT, LC-MS/MS
[7] = 120.0 hrs after last dose, second PPD patient, inhaled 5-MeO-DMT, LC-MS/MS
[8] = timepoint −24.0 hrs (pre-dosing), second PPD patient, inhaled 5-MeO-DMT 6 mg then 12 mg, LC-MS/MS
[9] = serum, 1.0 hrs after last dose, second PPD patient, inhaled 5-MeO-DMT, LC-MS/MS
[10] = urine, 2.5 hrs after last dose, second PPD patient, inhaled 5-MeO-DMT, LC-MS/MS
[11] = 5 kg infant, three feeds of 250 ml

CN(C)CCc1c[nH]c2ccc(O)cc12 [bufotenine]
Detection in breastmilk ([1]; any time point): not detected; also recorded: absence | Detection in serum ([1]; any time point): not detected | Breastmilk concentration [1, 4]: BLQ | Breastmilk concentration [1, 5]: BLQ | Breastmilk concentration [1, 6]: BLQ | Breastmilk concentration ([1]; 24.0 hrs after last dose, second PPD patient, inhaled 5-MeO-DMT, LC-MS/MS): BLQ | Breastmilk concentration [1, 7]: BLQ | Breastmilk concentration [1, 8]: BLQ | Serum concentration [1, 9]: BLQ | Serum concentration ([1]; serum, 2.5 hrs after last dose, second PPD patient, inhaled 5-MeO-DMT, LC-MS/MS): BLQ | Serum concentration ([1]; serum, 24.0 hrs after last dose, second PPD patient, inhaled 5-MeO-DMT, LC-MS/MS): BLQ | Serum concentration ([1]; serum, 120.0 hrs after last dose, second PPD patient, inhaled 5-MeO-DMT, LC-MS/MS): BLQ | Serum concentration ([1]; serum, timepoint −24.0 hrs (pre-dosing), second PPD patient, inhaled 5-MeO-DMT 6 mg then 12 mg, LC-MS/MS): BLQ | Urine concentration [1, 10]: 32.3 pg/mL | Urine concentration ([1]; urine, 8.5 hrs after last dose, second PPD patient, inhaled 5-MeO-DMT, LC-MS/MS): BLQ | Urine concentration ([1]; urine, 24.0 hrs after last dose, second PPD patient, inhaled 5-MeO-DMT, LC-MS/MS): BLQ | Urine concentration ([1]; urine, 120.0 hrs after last dose, second PPD patient, inhaled 5-MeO-DMT, LC-MS/MS): BLQ | Urine concentration ([1]; urine, timepoint −24.0 hrs (pre-dosing), second PPD patient, inhaled 5-MeO-DMT 6 mg then 12 mg, LC-MS/MS): BLQ | Relative Proportion of compounds identified (human hepatocytes [2]): 5%

COc1ccc2[nH]cc(CC[N+](C)(C)[O-])c2c1 [5-MeO-DMT-N-oxide]
Relative Proportion of compounds identified (human hepatocytes [2]): 1%

COc1ccc2[nH]cc(CCO)c2c1 [5-methoxytryptophol, 5-Methoxyindole-3-ethanol]
Relative LC/MS peak area (human hepatocytes [3]; 1 μM Hepatocytes, 1 h): 79% | Relative LC/MS peak area (human hepatocytes [3]; 1 μM Hepatocytes, 2 h): 57% | Relative LC/MS peak area (human hepatocytes [3]; 1 μM Hepatocytes, 4 h): 33% | Relative LC/MS peak area (human hepatocytes [3]; 1 μM Hepatocytes, 8 h): 10% | Relative LC/MS peak area (human hepatocytes [3]; 1 μM Hepatocytes, 24 h): 0% | Relative LC/MS peak area (human hepatocytes [3]; 1 μM Hepatocytes, 48 h): 0% | Relative LC/MS peak area (human hepatocytes [3]; 1 μM Hepatocytes, 72 h): 0% | Relative LC/MS peak area (human hepatocytes [3]; 1 μM Stromal cells, 4 h): 97% | Relative LC/MS peak area (human hepatocytes [3]; 1 μM Stromal cells, 8 h): 107% | Relative LC/MS peak area (human hepatocytes [3]; 1 μM Stromal cells, 24 h): 94% | Relative LC/MS peak area (human hepatocytes [3]; 1 μM Stromal cells, 48 h): 102% | Relative LC/MS peak area (human hepatocytes [3]; 1 μM Stromal cells, 72 h): 104% | Relative LC/MS peak area (human hepatocytes [3]; 10 μM Hepatocytes, 1 h): 87% | Relative LC/MS peak area (human hepatocytes [3]; 10 μM Hepatocytes, 2 h): 81% | Relative LC/MS peak area (human hepatocytes [3]; 10 μM Hepatocytes, 4 h): 68% | Relative LC/MS peak area (human hepatocytes [3]; 10 μM Hepatocytes, 8 h): 42% | Relative LC/MS peak area (human hepatocytes [3]; 10 μM Hepatocytes, 24 h): 1% | Relative LC/MS peak area (human hepatocytes [3]; 10 μM Hepatocytes, 48 h): 0% | Relative LC/MS peak area (human hepatocytes [3]; 10 μM Hepatocytes, 72 h): 0% | Relative LC/MS peak area (human hepatocytes [3]; 10 μM Stromal cells, 4 h): 99% | Relative LC/MS peak area (human hepatocytes [3]; 10 μM Stromal cells, 8 h): 105% | Relative LC/MS peak area (human hepatocytes [3]; 10 μM Stromal cells, 24 h): 86% | Relative LC/MS peak area (human hepatocytes [3]; 10 μM Stromal cells, 48 h): 98% | Relative LC/MS peak area (human hepatocytes [3]; 10 μM Stromal cells, 72 h): 104% | Half-life (human hepatocytes [3]): 142 min | In vitro intrinsic clearance (human hepatocytes [3]): 16.2 μl/min/million cells | Predicted hepatic extraction ratio (human hepatocytes [3]): 67% | Metabolic turnover (human hepatocytes [3]; in the presence of hepatocytes): high metabolic turnover | Time to complete disappearance (human hepatocytes [3]; in the presence of hepatocytes): ≤ 24 h | Disappearance with stromal cell controls (human hepatocytes [3]): no disappearance | Relative Proportion of compounds identified (human hepatocytes [2]): 25%

COc1ccc2[nH]cc(CC(=O)O)c2c1 [5-MIAA, 5-methoxyindole-3-acetic acid]
DID per kg infant weight [1, 11]: 0.001377 mg/kg/day | Total exposure of the infant (DID) [1, 11]: 0.006886 mg/day | Concentration in breast milk ([1]; 1 hour after last dose (6 mg + 12 mg 5-MeO-DMT)): 13.9452 ng/mL | Peak urine concentration relative to serum ([1]; 2.5 hours): approx. 127 times | Concentration in breast milk ([1]; 2.5 hours after last dose): 13.2409 ng/mL | Urine concentration ([1]; 2.5 hours after last dose): 12 980 501 pg/ml | Concentration in breast milk ([1]; 8.5 hours after last dose): 0.3594 ng/mL | Breastmilk concentration [1, 4]: 13945.2 pg/mL | Breastmilk concentration [1, 5]: 13240.9 pg/mL | Breastmilk concentration [1, 6]: 359.4 pg/mL | Breastmilk concentration [1, 7]: BLQ | Breastmilk concentration [1, 8]: BLQ | concentration at 24 h ([1]; female, human, breast milk, inhaled): 0.0355 ng/mL | concentration at 2.5 h ([1]; female, human, serum, inhaled): 102 ng/mL | concentration at 24 h ([1]; female, human, serum, inhaled): 0.271 ng/mL | concentration at 120 h ([1]; female, human, serum, inhaled): 0.0671 ng/mL | concentration at 2.5 h ([1]; female, human, urine, inhaled): ~13000 ng/mL | concentration at 8.5 h ([1]; female, human, urine, inhaled): 292 ng/mL | concentration at 24 h ([1]; female, human, urine, inhaled): 18.6 ng/mL | concentration at 120 h ([1]; female, human, urine, inhaled): 9.44 ng/mL | Serum concentration [1, 9]: 263.092 ng/mL | Urine concentration [1, 10]: 12980501 pg/mL | Relative LC/MS peak area (human hepatocytes [3]; 1 μM Hepatocytes, 1 h): 98% | Relative LC/MS peak area (human hepatocytes [3]; 1 μM Hepatocytes, 2 h): 100% | Relative LC/MS peak area (human hepatocytes [3]; 1 μM Hepatocytes, 4 h): 99% | Relative LC/MS peak area (human hepatocytes [3]; 1 μM Hepatocytes, 8 h): 95% | Relative LC/MS peak area (human hepatocytes [3]; 1 μM Hepatocytes, 24 h): 99% | Relative LC/MS peak area (human hepatocytes [3]; 1 μM Hepatocytes, 48 h): 88% | Relative LC/MS peak area (human hepatocytes [3]; 1 μM Hepatocytes, 72 h): 82% | Relative LC/MS peak area (human hepatocytes [3]; 1 μM Stromal cells, 4 h): 103% | Relative LC/MS peak area (human hepatocytes [3]; 1 μM Stromal cells, 8 h): 107% | Relative LC/MS peak area (human hepatocytes [3]; 1 μM Stromal cells, 24 h): 108% | Relative LC/MS peak area (human hepatocytes [3]; 1 μM Stromal cells, 48 h): 111% | Relative LC/MS peak area (human hepatocytes [3]; 1 μM Stromal cells, 72 h): 135% | Relative LC/MS peak area (human hepatocytes [3]; 10 μM Hepatocytes, 1 h): 97% | Relative LC/MS peak area (human hepatocytes [3]; 10 μM Hepatocytes, 2 h): 100% | Relative LC/MS peak area (human hepatocytes [3]; 10 μM Hepatocytes, 4 h): 103% | Relative LC/MS peak area (human hepatocytes [3]; 10 μM Hepatocytes, 8 h): 96% | Relative LC/MS peak area (human hepatocytes [3]; 10 μM Hepatocytes, 24 h): 96% | Relative LC/MS peak area (human hepatocytes [3]; 10 μM Hepatocytes, 48 h): 86% | Relative LC/MS peak area (human hepatocytes [3]; 10 μM Hepatocytes, 72 h): 75% | Relative LC/MS peak area (human hepatocytes [3]; 10 μM Stromal cells, 4 h): 101% | Relative LC/MS peak area (human hepatocytes [3]; 10 μM Stromal cells, 8 h): 106% | Relative LC/MS peak area (human hepatocytes [3]; 10 μM Stromal cells, 24 h): 97% | Relative LC/MS peak area (human hepatocytes [3]; 10 μM Stromal cells, 48 h): 103% | Relative LC/MS peak area (human hepatocytes [3]; 10 μM Stromal cells, 72 h): 115% | Remaining abundance after 72 h (human hepatocytes [3]; hepatocytes, 1 and 10 μM): 75-82% | Half-life (human hepatocytes [3]): 15 400 min | In vitro intrinsic clearance (human hepatocytes [3]): 0.15 μl/min/million cells | Predicted hepatic extraction ratio (human hepatocytes [3]): 2% | Metabolic turnover (human hepatocytes [3]; in the presence of hepatocytes): low metabolic turnover | Disappearance with stromal cell controls (human hepatocytes [3]): no disappearance | Mean % Recovery (human plasma protein): 81.4% | Mean fu (human plasma protein): 0.502 | Plasma binding (mean fraction unbound) (human plasma protein): ~50% | Unbound fraction (fu), Replicate 1 (human plasma protein): 0.499 | Unbound fraction (fu), Replicate 2 (human plasma protein): 0.462 | Unbound fraction (fu), Replicate 3 (human plasma protein): 0.544 | Relative Proportion of compounds identified (human hepatocytes [2]): about 60% | Relative Proportion of compounds identified (human hepatocytes [2]; listed as 5-Methoxyindole acetic acid (5-MIAA)): 61%

CC(=O)CC(c1ccccc1)c1c(O)c2ccccc2oc1=O (centres unmarked) [Warfarin, reference compound]
Mean % Recovery (human plasma protein): 78.1% | Mean fu (human plasma protein): 0.0377 | Unbound fraction (fu), Replicate 1 (human plasma protein): 0.0418 | Unbound fraction (fu), Replicate 2 (human plasma protein): 0.0356 | Unbound fraction (fu), Replicate 3 (human plasma protein): 0.0358
